Measured values taken from BindingDB's records for doi:10.1021/jm9806650 (Institute of Chemical Technology, 1999).

Assay: The compound was tested in vitro for inhibition of HIV-1 replication

Row | Structure (SMILES) | IC50
1 | COc1ccc(-c2c3n(c4c(=O)oc5cc(OS(=O)(=O)O)c(OC)cc5c24)CCc2cc(OC)c(OC)cc2-3)cc1O | 12 µM
2 | COc1ccc(-c2c3c4cc(OC)c(O)cc4oc(=O)c3n3ccc4cc(O)c(OC)cc4c23)cc1O [3,10-Dihydroxy-13-(3-hydroxy-4-methoxy-phenyl)-2,11-dimethoxy-5-oxa-6b-aza-dibenzo[a,i]fluoren-6-one] | 1 µM
3 | COc1ccc(-c2c3c4cc(OC)c(O)cc4oc(=O)c3n3ccc4c(OC)c(OC)c(OC)cc4c23)cc1O [3-Hydroxy-13-(3-hydroxy-4-methoxy-phenyl)-2,9,10,11-tetramethoxy-5-oxa-6b-aza-dibenzo[a,i]fluoren-6-one] | 20 µM

More lines, now with the values ahead:

Row | IC50 | Structure (SMILES)
4 | 18 µM | COc1ccc(-c2c3n(c4c(=O)oc5cc(O)c(OC)cc5c24)CCc2c-3cc(OC)c(OC)c2OC)cc1O [3-Hydroxy-13-(3-hydroxy-4-methoxy-phenyl)-2,9,10,11-tetramethoxy-7,8-dihydro-5-oxa-6b-aza-dibenzo[a,i]fluoren-6-one]
5 | 20 µM | COc1ccc(-c2c3n(c4c(=O)oc5cc(OS(=O)(=O)O)c(OC)cc5c24)C(O)Cc2c-3cc(OC)c(OC)c2OC)cc1O (stereo not given) [7-Hydroxy-13-(3-hydroxy-4-methoxy-phenyl)-2,9,10,11-tetramethoxy-7,8-dihydro-5-oxa-6b-aza-dibenzo[a,i]fluoren-6-one sodium sulfonate]
